Laboratory results from patent US20250326815A1, “STAPLE-CONTAINING POLYPEPTIDES AND APPLICATION THEREOF” (Soter Biopharma Pte. Ltd., priority 2021, published 2025).
pEC50: −log10 of the molar value.

Experiments:
Assay type in all cases: cell-based
GCGR = molecular target: T1, GCGR (Homo sapiens, UniProt P47871); assay: In vitro agonistic activity on GCGR (cAMP assay); conditions: HEK293 cell line; for Agonistic activity on GCGR Max Activity (%): Max Dose 100 nM
T1 construct: host or cells: HEK293
T1 sequence (P47871 26-477, species assumed): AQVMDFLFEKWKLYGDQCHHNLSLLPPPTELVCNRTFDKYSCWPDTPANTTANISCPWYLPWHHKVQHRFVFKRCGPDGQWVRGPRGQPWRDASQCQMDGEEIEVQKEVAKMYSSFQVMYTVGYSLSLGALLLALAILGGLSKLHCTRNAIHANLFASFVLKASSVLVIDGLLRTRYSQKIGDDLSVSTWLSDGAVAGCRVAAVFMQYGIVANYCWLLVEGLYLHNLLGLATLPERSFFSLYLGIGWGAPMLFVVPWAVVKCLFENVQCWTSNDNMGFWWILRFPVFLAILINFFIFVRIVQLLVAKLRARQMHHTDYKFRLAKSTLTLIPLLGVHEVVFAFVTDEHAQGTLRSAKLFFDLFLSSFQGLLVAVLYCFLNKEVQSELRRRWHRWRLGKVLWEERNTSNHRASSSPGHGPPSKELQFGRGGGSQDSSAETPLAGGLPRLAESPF
Experimental: (§1) The cell lines were constructed by Shanghai WuXi AppTec.
(§2) The compounds to be assayed were serially diluted 4-fold with Bravo to obtain 10 concentrations, with a starting concentration of 30 μM.
(§3) 1) 100 nL of the compound was transferred to an OptiPlate-384 plate using Echo.
(§4) 2) The OptiPlate-384 plate was centrifuged at 1000 rpm for 5 seconds.
(§5) 1) A GLP-1R/GIPR/GCGR cell cryopreservation tube was quickly placed in warm water at 37° C. to thaw.
(§6) 2) The cell suspension was transferred to a 15 mL centrifuge tube, and gently washed with 10 ml of HBSS.
(§7) 3) The centrifuge tube was centrifuged at 1000 rpm at room temperature for 1 minute.
(§8) 4) The supernatant was discarded.
(§9) 5) The cells at the bottom were gently dispersed and gently washed with 10 ml of HBSS. The cells were centrifuged and sedimented, and finally resuspended with the assay buffer.
(§10) 6) Vi-cell was used to measure the cell density and viability.
(§11) 7) The concentration of GLP-1R/GIPR/GCGR cells was diluted to 2.0*105/mL with the assay buffer.
(§12) 8) […] of the diluted cell suspension was transferred to the OptiPlate-384 plate.
(§13) 9) The plate was incubated at room temperature for 30 minutes.
(§14) 1) 10 μL of 800 nM gradient diluted cAMP standard was added into an empty well of the OptiPlate-384 plate.
(§15) 2) 10 μL of cAMP assay reagent was added.
(§16) 3) The OptiPlate-384 plate was covered with a TopSeal-A film and incubated at room temperature for 60 minutes.
(§17) The TopSeal-A was peeled off and the plate was read on the EnVision.

GLP-1R = molecular target: T2, GLP-1R (Homo sapiens, UniProt P43220); assay: In vitro agonistic activity on GLP-1R (cAMP assay); conditions: HEK293 cell line; for Agonistic activity on GLP-1R Max Activity (%): Max Dose 20 nM
T2 construct: host or cells: HEK293
T2 sequence (P43220 24-463, species assumed): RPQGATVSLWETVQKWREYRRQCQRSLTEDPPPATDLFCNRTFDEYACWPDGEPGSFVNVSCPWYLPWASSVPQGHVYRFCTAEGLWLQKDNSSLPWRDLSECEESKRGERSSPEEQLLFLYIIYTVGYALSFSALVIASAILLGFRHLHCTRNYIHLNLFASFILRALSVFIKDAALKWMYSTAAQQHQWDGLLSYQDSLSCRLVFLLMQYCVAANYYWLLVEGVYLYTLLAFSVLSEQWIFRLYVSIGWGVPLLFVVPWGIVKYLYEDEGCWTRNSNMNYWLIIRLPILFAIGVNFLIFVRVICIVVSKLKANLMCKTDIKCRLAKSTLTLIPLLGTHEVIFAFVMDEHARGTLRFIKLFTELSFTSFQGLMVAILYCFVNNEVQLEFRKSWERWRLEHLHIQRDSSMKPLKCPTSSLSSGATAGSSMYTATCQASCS
Experimental: as §1, §2, §3, §4, §5, §6, §7, §8, §9, §10, §11, §12, §13, §14, §15, §16, §17

GIPR = molecular target: T3, GIPR (Homo sapiens, UniProt P48546); assay: In vitro agonistic activity on GIPR (cAMP assay); conditions: CHO cell line; for Agonistic activity on GIPR Max Activity (%): Max Dose 20 nM
T3 construct: host or cells: CHO
T3 sequence (P48546 22-466): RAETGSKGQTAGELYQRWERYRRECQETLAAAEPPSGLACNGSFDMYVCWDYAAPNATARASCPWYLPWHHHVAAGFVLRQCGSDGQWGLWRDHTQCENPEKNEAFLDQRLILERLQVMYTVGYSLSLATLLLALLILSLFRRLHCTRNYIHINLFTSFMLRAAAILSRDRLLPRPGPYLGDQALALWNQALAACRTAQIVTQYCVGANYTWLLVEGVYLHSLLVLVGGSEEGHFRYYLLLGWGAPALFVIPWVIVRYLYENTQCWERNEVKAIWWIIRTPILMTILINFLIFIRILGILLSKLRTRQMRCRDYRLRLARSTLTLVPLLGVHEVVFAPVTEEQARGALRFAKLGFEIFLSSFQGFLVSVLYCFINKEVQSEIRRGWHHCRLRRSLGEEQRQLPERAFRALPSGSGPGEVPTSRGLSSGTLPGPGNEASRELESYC
Experimental: as §1, §2, §3, §4, §5, §6, §7, §8, §9, §10, §11, §12, §13, §14, §15, §16, §17

pEC50 (GCGR) | Agonistic activity on GCGR Max Activity (%) (GCGR) | pEC50 (GLP-1R) | Agonistic activity on GLP-1R Max Activity (%) (GLP-1R) | pEC50 (GIPR) | Agonistic activity on GIPR Max Activity (%) (GIPR) | SMILES
9.71 | 144.14% | 10.77 | 106.52% | < 7.70 | 4.06% | CC(C)C[C@H](NC(=O)[C@H](CC(C)C)NC(=O)[C@H](Cc1c[nH]c2ccccc12)NC(=O)[C@H](CCC(=O)O)NC(=O)[C@@H](NC(=O)[C@H](Cc1ccccc1)NC(=O)[C@@H]1CCCCNC(=O)CN(C(=O)COCCOCCNC(=O)COCCOCCNC(=O)CC[C@H](NC(=O)CCCCCCCCCCCCCCCCCCC(=O)O)C(=O)O)CC(=O)NCCCC[C@H](NC(=O)[C@H](CCC(=O)O)NC(=O)[C@H](CC(=O)O)NC(=O)[C@H](CC(C)C)NC(=O)[C@H](Cc2ccc(O)cc2)NC(=O)[C@H](CCCCN)NC(=O)[C@H](CO)NC(=O)[C@H](Cc2ccc(O)cc2)NC(=O)[C@H](CC(=O)O)NC(=O)[C@H](CO)NC(=O)[C@@H](NC(=O)[C@H](Cc2ccccc2)NC(=O)[C@@H](NC(=O)CNC(=O)[C@H](CCC(N)=O)NC(=O)C(C)(C)NC(=O)[C@@H](N)Cc2c[nH]cn2)[C@@H](C)O)[C@@H](C)O)C(=O)N[C@@H](CCCCN)C(=O)N[C@@H](C)C(=O)N[C@@H](CCCCN)C(=O)N1)C(C)C)C(=O)N[C@@H](CCC(=O)O)C(=O)NCC(=O)NCC(=O)N1CCC[C@H]1C(=O)N[C@@H](CO)C(=O)N[C@@H](CO)C(=O)NCC(N)=O [WX002]
9.20 | 86.01% | 10.23 | 111.18% | < 7.70 | 1.57% | CC(C)C[C@H](NC(=O)[C@H](CC(C)C)NC(=O)[C@H](Cc1c[nH]c2ccccc12)NC(=O)[C@H](CCC(=O)O)NC(=O)[C@@H](NC(=O)[C@H](Cc1ccccc1)NC(=O)[C@@H]1CCCCNC(=O)CN(C(=O)COCCOCCNC(=O)COCCOCCNC(=O)CC[C@H](NC(=O)CCCCCCCCCCCCCCCCCCC(=O)O)C(=O)O)CC(=O)NCCCC[C@H](NC(=O)[C@H](CCCCN)NC(=O)[C@H](CCC(=O)O)NC(=O)[C@H](CC(=O)O)NC(=O)[C@H](CC(C)C)NC(=O)[C@H](Cc2ccc(O)cc2)NC(=O)[C@H](CCCCN)NC(=O)[C@H](CO)NC(=O)[C@H](Cc2ccc(O)cc2)NC(=O)[C@H](CC(=O)O)NC(=O)[C@H](CO)NC(=O)[C@@H](NC(=O)[C@H](Cc2ccccc2)NC(=O)[C@@H](NC(=O)CNC(=O)[C@H](CCC(N)=O)NC(=O)C(C)(C)NC(=O)[C@@H](N)Cc2c[nH]cn2)[C@@H](C)O)[C@@H](C)O)C(=O)N[C@@H](C)C(=O)N[C@@H](CCCCN)C(=O)N1)C(C)C)C(=O)N[C@@H](CCC(=O)O)C(=O)NCC(=O)NCC(=O)N1CCC[C@H]1C(=O)N[C@@H](CO)C(=O)N[C@@H](CO)C(=O)NCC(N)=O [WX003]
8.52 | 140.57% | 9.95 | 104.24% | < 7.70 | 1.42% | CC(C)C[C@@H]1NC(=O)[C@H](CC(C)C)NC(=O)[C@H](Cc2c[nH]c3ccccc23)NC(=O)[C@@H](NC(=O)[C@@H](NC(=O)[C@H](Cc2ccccc2)NC(=O)[C@H](CCC(=O)O)NC(=O)[C@H](CCCCN)NC(=O)[C@H](C)NC(=O)[C@H](CCCCN)NC(=O)[C@H](CCCCN)NC(=O)[C@H](CCC(=O)O)NC(=O)[C@H](CC(=O)O)NC(=O)[C@H](CC(C)C)NC(=O)[C@H](Cc2ccc(O)cc2)NC(=O)[C@H](CCCCN)NC(=O)[C@H](CO)NC(=O)[C@H](Cc2ccc(O)cc2)NC(=O)[C@H](CC(=O)O)NC(=O)[C@H](CO)NC(=O)[C@@H](NC(=O)[C@H](Cc2ccccc2)NC(=O)[C@@H](NC(=O)CNC(=O)[C@H](CCC(N)=O)NC(=O)C(C)(C)NC(=O)[C@@H](N)Cc2c[nH]cn2)[C@@H](C)O)[C@@H](C)O)C(C)C)CCCCNC(=O)CN(C(=O)COCCOCCNC(=O)COCCOCCNC(=O)CC[C@H](NC(=O)CCCCCCCCCCCCCCCCCCC(=O)O)C(=O)O)CC(=O)NCCCC[C@@H](C(=O)NCC(=O)NCC(=O)N2CCC[C@H]2C(=O)N[C@@H](CO)C(=O)N[C@@H](CO)C(=O)NCC(N)=O)NC1=O [WX005]
